According to US4066635A, “L-Pyroglutamyl-L-histidyl-L-prolyl-beta-alaninamide and salts” (Hoffmann-La Roche Inc., priority 1976, dated 1978):
Non-standard residues stand in square brackets, D forms with d. Residues, ends and D or L forms follow the SMILES beside them. pGlu = O=C1CC[C@@H](C(=O)O)N1; βAla = NCCC(=O)O

Key:
[1] = tested on: noradrenalin (NA) in the entire brain of male mice; assay: Lowering of noradrenalin (NA) in entire brain of mice after FLA 63 (FLA 63-induced NA-lowering); assay type: in vivo, mouse
Experimental: The action of antidepressants can be explained by the fact that such substances normalise the activity of noradrenergic neurones in the brain, this activity being altered in the case of depressive illness. […] If a test substance has NA-liberating action, then this manifests itself in an intensification of the FLA63-induced NA-lowering.
In order to determine the antidepressant action of the compound of formula I hereinbefore, the lowering of NA in the entire brain of male mice was determined 90 minutes after the i.p. injection of FLA 63 (5 mg/kg).

mice = assay: Locomotor activity in mice; assay type: in vivo, mouse
[2] = Toxicity (LD 10, LD 50) in the mouse; assay type: in vivo; conditions: in vivo, iv
mouse = assay: Toxicity (LD 10, LD 50) in the mouse; assay type: in vivo; conditions: p.o.

Q: With `NC(=O)CCNC(=O)[C@@H]1CCCN1C(=O)[C@H](Cc1c[nH]cn1)NC(=O)[C@@H]1CCC(=O)N1` [compound of formula I, L-pyroglutamyl-L-histidyl-L-prolyl-β-alaninamide] ([pGlu]HP[βAla]-NH2) as the compound, how does the “Noradrenalin (%)” value ([1]; FLA 63 5 mg/kg i.p. plus test substance injected simultaneously, 90 minutes, entire brain, male mice, FLA 63 alone = 100%) read?
A: 82.2 ± 2.6%

Q: And the “liberation of NA in the brain of mice (in words)” value ([1]; mice)?
A: increases the liberation of NA

Q: And the “FLA 63-induced NA-lowering (in words)” value ([1]; simultaneous injection with FLA 63 (5 mg/kg i.p.), 90 minutes, male mice)?
A: significant acceleration of the FLA 63-induced NA-lowering

Q: And the “locomotor activity in mice (in words)” value (mice)?
A: increase in the locomotor activity

Q: What about the LD50 [2] of the same compound?
A: > 4000 mg/kg

Q: And the “LD 10” value (mouse)?
A: above 8 g/kg
